ChEMBL document CHEMBL4651402, “Screening of ~5500 FDA-approved drugs and clinical candidates for anti-SARS-CoV-2 activity” (2021)
Where a name gives a salt, the structure may show the parent alone.

Test system: SARS-CoV-2
Experiment: microbe, parasite or virus in culture
Conditions: Severe acute respiratory syndrome coronavirus 2, Vero C1008, 48 h

| SMILES | IC50 | IC50 (read-out: pIC50 (converted)) |
| --- | --- | --- |
| CC1N(CC(=O)c2ccccc2)CCCC1(C)c1cccc(O)c1 (configuration not stated) [MYFADOL] | > 20 µM | > 20 µM |
| c1cncc(C2=NCCC2)c1 [MYOSMINE] | > 20 µM | > 20 µM |
| O=c1c(O)c(-c2cc(O)c(O)c(O)c2)oc2cc(O)cc(O)c12 [MYRICETIN] | > 20 µM | > 20 µM |
| CCCCCCCCCCCCCC(=O)O [MYRISTIC ACID] | > 20 µM | > 20 µM |
| OC[C@H]1O[C@@H](n2cnc3c(NC4CCCC4)ncnc32)[C@H](O)[C@@H]1O [N6-CYCLOPENTYLADENOSINE] | > 20 µM | > 20 µM |
| N=C(N)NC(=O)c1nc(Cl)c(N2CCCCCC2)nc1N [N,N-HEXAMETHYLENEAMILORIDE] | > 20 µM | > 20 µM |
| CC(=O)N1CCCC1C(=O)O (configuration not stated) [N-ACETYLPROLINE] | > 20 µM | > 20 µM |
| COc1ccc2cc(CCC(C)=O)ccc2c1 [NABUMETONE] | > 20 µM | > 20 µM |
| NC(=O)c1ccc[n+]([C@@H]2O[C@H](COP(=O)([O-])OP(=O)(O)OC[C@H]3O[C@@H](n4cnc5c(N)ncnc54)[C@H](O)[C@@H]3O)[C@@H](O)[C@H]2O)c1 [NADIDE] | > 20 µM | > 20 µM |
| CC1CCc2c(N3CCC(O)CC3)c(F)cc3c(=O)c(C(=O)O)cn1c23 (configuration not stated) [NADIFLOXACIN] | > 20 µM | > 20 µM |
| CC(C)(C)NCC(O)COc1cccc2c1CC(O)C(O)C2 (configuration not stated) [NADOLOL] | > 20 µM | > 20 µM |
| N=C(N)Nc1ccc(C(=O)Oc2ccc3cc(C(=N)N)ccc3c2)cc1 [NAFAMOSTAT] | > 20 µM | > 20 µM |
| CCOc1ccc2ccccc2c1C(=O)N[C@@H]1C(=O)N2[C@@H]1SC(C)(C)[C@@H]2C(=O)O [NAFCILLIN] | > 20 µM | > 20 µM |
| CC(C)(Oc1ccc(C2CCCc3ccccc32)cc1)C(=O)O (configuration not stated) [NAFENOPIN] | > 20 µM | > 20 µM |
| O=C(Cn1ccnc1)c1ccc2ccccc2c1 [NAFIMIDONE] | > 20 µM | > 20 µM |
| CCN(CC)CCOC(=O)C(Cc1cccc2ccccc12)CC1CCCO1 (configuration not stated) [NAFRONYL] | > 20 µM | > 20 µM |
| CN(C/C=C/c1ccccc1)Cc1cccc2ccccc12 [NAFTIFINE] | > 20 µM | > 20 µM |
| COc1ccccc1N1CCN(CC(O)COc2cccc3ccccc23)CC1 (configuration not stated) [NAFTOPIDIL] | > 20 µM | > 20 µM |

| SMILES | IC50 | IC50 (read-out: pIC50 (converted)) |
| --- | --- | --- |
| Oc1ccc2c3c1O[C@H]1[C@@H](O)CC[C@@]4(O)[C@@H](C2)N(CC2CCC2)CC[C@]314 [NALBUPHINE] | > 50.1 µM | > 50.1 µM |
| CCn1cc(C(=O)O)c(=O)c2ccc(C)nc21 [NALIDIXIC ACID] | > 20 µM | > 20 µM |
| C=CCN1CC[C@]23c4c5ccc(O)c4O[C@H]2C(=O)CC[C@@]3(O)[C@H]1C5 [NALOXONE] | > 20 µM | > 20 µM |
| O=C1CC[C@@]2(O)[C@H]3Cc4ccc(O)c5c4[C@@]2(CCN3CC2CC2)[C@H]1O5 [NALTREXONE] | > 20 µM | > 20 µM |
| CNC(=O)[C@H]1O[C@@H](n2cnc3c(NCc4cccc(I)c4)nc(Cl)nc32)[C@H](O)[C@@H]1O [NAMODENOSON] | > 20 µM | > 20 µM |
| CCCCCCCCCC(=O)O[C@H]1CC[C@H]2[C@@H]3CCC4=CC(=O)CC[C@@H]4[C@H]3CC[C@]12C [NANDROLONE DECANOATE] | > 20 µM | > 20 µM |
| C[C@]12CC[C@H]3[C@@H](CCC4=CC(=O)CC[C@@H]43)[C@@H]1CC[C@@H]2O [NANDROLONE] | > 20 µM | > 20 µM |
| CC(=O)Oc1cc(OC(C)CCCc2ccccc2)cc2c1[C@@H]1C[C@H](O)CC[C@H]1[C@H](C)N2 (some centres not stated) [NANTRADOL HYDROCHLORIDE] | > 20 µM | > 20 µM |
| CC(=O)c1cc2c(o1)C(=O)c1ccccc1C2=O [NAPABUCASIN] | > 20 µM | > 20 µM |
| C/N=C(/Cc1ccc2ccccc2c1)NC [NAPACTADINE] | > 20 µM | > 20 µM |
| c1ccc2c(CC3=NCCN3)cccc2c1 [NAPHAZOLINE] | > 20 µM | > 20 µM |
| O=C1C=CC(=O)c2ccccc21 [NAPHTHOQUINONE] | > 20 µM | > 20 µM |
| COc1ccc2cc([C@H](C)CO)ccc2c1 [NAPROXOL] | > 20 µM | > 20 µM |
| CC1CN(C)CC2Cc3c(ccc4ccccc34)OC12O (configuration not stated) [NARANOL] | > 20 µM | > 20 µM |
| COc1ccc(C(=O)Cc2c(CCN(C)C)cc3c(c2OC)OCO3)c(C(=O)O)c1OC [NARCEINE] | > 20 µM | > 20 µM |
| O=C1C[C@@H](c2ccc(O)cc2)Oc2cc(O)cc(O)c21 [NARINGENIN] | > 20 µM | > 20 µM |
| C[C@@H]1O[C@@H](O[C@H]2[C@H](Oc3cc(O)c4c(c3)O[C@H](c3ccc(O)cc3)CC4=O)O[C@H](CO)[C@@H](O)[C@@H]2O)[C@H](O)[C@H](O)[C@H]1O [NARINGIN] | > 20 µM | > 20 µM |
| CC(C)[C@H]1CC[C@H](C(=O)N[C@H](Cc2ccccc2)C(=O)O)CC1 [NATEGLINIDE] | > 20 µM | > 20 µM |
